Laboratory results: US11034672B1, “Tyrosine kinase inhibitor compositions, methods of making and methods of use” (Black Diamond Therapeutics, Inc., priority 2018, dated 2021)

Columns and labels:
Type in all cases: cell-based
EGFR WT [1] = biological target: T1, EGFR WT (Homo sapiens, UniProt P00533); test: Activity for inhibiting EGFR (Table A), EGFR WT; conditions: read-out: EGFR WT, potency code (IC50)
EGFR V3 [2] = biological target: T2, EGFR V3 (Homo sapiens, UniProt P00533, DELINS30-297G); test: Activity for inhibiting EGFR (Table A), EGFR V3 (EGFR-Viii); conditions: read-out: EGFR V3, potency code (IC50)
T2 construct: expressed in transfected cells; host or cells: BaF3 (murine pro-B), retroviral pMXs-IRES-Blasticidin

EGFR NPH [3] = biological target: T3, EGFR NPH (Homo sapiens, UniProt P00533, DUP771-773); test: Activity for inhibiting EGFR (Table A), EGFR NPH; conditions: read-out: EGFR NPH, potency code (IC50)
T3 construct: expressed in transfected cells; host or cells: BaF3 (murine pro-B), retroviral pMXs-IRES-Blasticidin

EGFR SVD [4] = biological target: T4, EGFR SVD (Homo sapiens, UniProt P00533, DUP768-770); test: Activity for inhibiting EGFR (Table A), EGFR SVD; conditions: read-out: EGFR SVD, potency code (IC50)
T4 construct: expressed in transfected cells; host or cells: BaF3 (murine pro-B), retroviral pMXs-IRES-Blasticidin

HER2 WT [5] = biological target: T5, HER2 WT (Homo sapiens, UniProt P04626); test: Activity for inhibiting HER2 (Table B), HER2 WT
HER2 S310F [6] = biological target: T6, HER2 S310F (Homo sapiens, UniProt P04626, S310F); test: Activity for inhibiting HER2 (Table B), HER2 S310F; conditions: read-out: HER2 S310F, potency code (IC50)
T6 construct: expressed in transfected cells; host or cells: BaF3 (murine pro-B)
Protocol: (§1) EC50 values were determined with the same application.

HER2 YVMA [7] = biological target: T7, HER2 YVMA (Homo sapiens, UniProt P04626, INS775YVMA); test: Activity for inhibiting HER2 (Table B), HER2 YVMA; conditions: read-out: HER2 YVMA, potency code (IC50)
T7 construct: expressed in transfected cells; host or cells: BaF3 (murine pro-B)
Protocol: as §1

EGFR WT [8] = biological target: T1, EGFR WT; test: BaF3 cell proliferation assay, EGFR WT (Table A); conditions: potency code, 3 days, CellTiterGlo, read-out: EGFR WT (Activity for Inhibiting EGFR)
Method in brief: (§2)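 Readout: EC50 for BaF3 proliferation. Cells stably expressing the receptor variant were generated by retrovirus and IL-3 independence.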

EGFR V3 [9] = biological target: T2, EGFR V3; test: BaF3 cell proliferation assay, EGFR V3 (Table A); conditions: potency code, 3 days, CellTiterGlo, read-out: EGFR V3 (Activity for Inhibiting EGFR)
Method in brief: as §2

EGFR NPH [10] = biological target: T3, EGFR NPH; test: BaF3 cell proliferation assay, EGFR NPH (Table A); conditions: potency code, 3 days, CellTiterGlo, read-out: EGFR NPH (Activity for Inhibiting EGFR)
Protocol: (§3) Retroviral Production: EGFR mutants were subcloned into pMXs-IRES-Blasticidin (RTV-016, Cell Biolabs, San Diego, Calif.). Retroviral expression vector retrovirus was produced by transient transfection of HEK 293T cells with the retroviral EGFR mutant expression vector pMXs-IRES-Blasticidin (RTV-016, Cell Biolabs), pCMV-Gag-Pol vector and pCMV-VSV-G-Envelope vector. Briefly, HEK 293T/17 cells were plated in 100 mm collagen coated plate (354450, Corning Life Sciences, Tewksbury, Mass.) (4×10^5 per plate) and incubated overnight. The next day, retroviral plasmids (3 μg of EGFR mutant, 1.0 μg of pCMV-Gag-Pol and 0.5 μg pCMV-VSV-G) were mixed in 500 μl of Optimem (31985, Life Technologies). The mixture was incubated at room temperature for 5 min and then added to Optimem containing transfection reagent Lipofectamine (11668, Invitrogen) and incubated for 20 minutes. Mixture was then added dropwise to HEK 293T cells. The next day the medium was replaced with fresh culture medium and retrovirus was harvested @ 24 and 48 hrs.
(§4) Generation of EGFR mutant stable cell lines: BaF3 cells (1.5E5 cells) were infected with 1 ml of viral supernatant supplemented with 8 μg/ml polybrene by centrifuging for 30 min at 1000 rpm. Cells were placed in a 37° C. incubator overnight. Cells were then spun for 5 minutes to pellet the cells. Supernatant was removed and cells re-infected a fresh 1 ml of viral supernatant supplemented with 8 μg/ml polybrene by centrifuging for 30 min at 1000 rpm. Cells were placed in 37° C. incubator overnight. […] After 48 hours cells were selected for retroviral infection in 10 μg/ml Blasticidin for one week. Blasticidin resistant populations were washed twice in phosphate buffered saline before plating in media lacking IL-3 to select for IL-3 independent growth.
as §1

EGFR SVD [11] = biological target: T4, EGFR SVD; test: BaF3 cell proliferation assay, EGFR SVD (Table A); conditions: potency code, 3 days, CellTiterGlo, read-out: EGFR SVD (Activity for Inhibiting EGFR)
Protocol: as §3, §4, §1

HER2 WT [12] = biological target: T5, HER2 WT; test: BaF3 cell proliferation assay, HER2 WT (Table B); conditions: potency code, 3 days, CellTiterGlo, read-out: HER2 WT (Activity for Inhibiting HER2)
HER2 S310F [13] = biological target: T6, HER2 S310F; test: BaF3 cell proliferation assay, HER2 S310F (Table B); conditions: potency code, 3 days, CellTiterGlo, read-out: HER2 S310F (Activity for Inhibiting HER2)
HER2 YVMA [14] = biological target: T7, HER2 YVMA; test: BaF3 cell proliferation assay, HER2 YVMA (Table B); conditions: potency code, 3 days, CellTiterGlo, read-out: HER2 YVMA (Activity for Inhibiting HER2)
[15] = Table B, read-out: HER2 WT, potency code (IC50)
[16] = text lists of compounds, read-out: IC50 value for inhibiting wild-type HER2

T1 sequence (P00533 25-1210 N540K): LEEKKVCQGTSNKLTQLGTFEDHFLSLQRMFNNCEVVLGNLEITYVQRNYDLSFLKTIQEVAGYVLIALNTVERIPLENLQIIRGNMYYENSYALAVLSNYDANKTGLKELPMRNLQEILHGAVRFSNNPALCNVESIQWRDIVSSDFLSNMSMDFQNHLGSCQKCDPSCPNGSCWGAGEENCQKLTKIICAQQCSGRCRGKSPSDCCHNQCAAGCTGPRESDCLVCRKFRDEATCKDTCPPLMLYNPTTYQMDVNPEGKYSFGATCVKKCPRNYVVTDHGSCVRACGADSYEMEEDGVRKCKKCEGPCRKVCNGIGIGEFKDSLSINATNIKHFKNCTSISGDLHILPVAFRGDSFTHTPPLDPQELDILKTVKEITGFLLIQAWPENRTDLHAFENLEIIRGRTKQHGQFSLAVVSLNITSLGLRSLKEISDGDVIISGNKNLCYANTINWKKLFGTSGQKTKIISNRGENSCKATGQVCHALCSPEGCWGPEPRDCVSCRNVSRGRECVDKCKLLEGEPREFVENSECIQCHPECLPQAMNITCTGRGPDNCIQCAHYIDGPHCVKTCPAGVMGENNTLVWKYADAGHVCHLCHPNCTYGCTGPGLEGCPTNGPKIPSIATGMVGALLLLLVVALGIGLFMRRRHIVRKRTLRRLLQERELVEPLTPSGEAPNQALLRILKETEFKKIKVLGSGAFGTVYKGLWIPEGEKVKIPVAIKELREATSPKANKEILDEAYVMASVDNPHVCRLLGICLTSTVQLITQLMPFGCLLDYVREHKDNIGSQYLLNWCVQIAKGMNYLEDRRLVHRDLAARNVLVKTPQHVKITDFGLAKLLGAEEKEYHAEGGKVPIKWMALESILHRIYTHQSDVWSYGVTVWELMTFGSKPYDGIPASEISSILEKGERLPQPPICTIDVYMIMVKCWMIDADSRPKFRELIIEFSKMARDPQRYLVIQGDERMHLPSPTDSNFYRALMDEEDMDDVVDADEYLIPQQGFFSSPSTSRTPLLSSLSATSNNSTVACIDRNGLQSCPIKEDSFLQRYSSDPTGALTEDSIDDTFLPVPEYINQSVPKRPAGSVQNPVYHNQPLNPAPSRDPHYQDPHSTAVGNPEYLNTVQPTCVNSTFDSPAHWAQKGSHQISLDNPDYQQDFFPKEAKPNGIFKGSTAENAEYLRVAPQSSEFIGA
T3 sequence (P00533 with tags, fused parts or gaps DUP771-773): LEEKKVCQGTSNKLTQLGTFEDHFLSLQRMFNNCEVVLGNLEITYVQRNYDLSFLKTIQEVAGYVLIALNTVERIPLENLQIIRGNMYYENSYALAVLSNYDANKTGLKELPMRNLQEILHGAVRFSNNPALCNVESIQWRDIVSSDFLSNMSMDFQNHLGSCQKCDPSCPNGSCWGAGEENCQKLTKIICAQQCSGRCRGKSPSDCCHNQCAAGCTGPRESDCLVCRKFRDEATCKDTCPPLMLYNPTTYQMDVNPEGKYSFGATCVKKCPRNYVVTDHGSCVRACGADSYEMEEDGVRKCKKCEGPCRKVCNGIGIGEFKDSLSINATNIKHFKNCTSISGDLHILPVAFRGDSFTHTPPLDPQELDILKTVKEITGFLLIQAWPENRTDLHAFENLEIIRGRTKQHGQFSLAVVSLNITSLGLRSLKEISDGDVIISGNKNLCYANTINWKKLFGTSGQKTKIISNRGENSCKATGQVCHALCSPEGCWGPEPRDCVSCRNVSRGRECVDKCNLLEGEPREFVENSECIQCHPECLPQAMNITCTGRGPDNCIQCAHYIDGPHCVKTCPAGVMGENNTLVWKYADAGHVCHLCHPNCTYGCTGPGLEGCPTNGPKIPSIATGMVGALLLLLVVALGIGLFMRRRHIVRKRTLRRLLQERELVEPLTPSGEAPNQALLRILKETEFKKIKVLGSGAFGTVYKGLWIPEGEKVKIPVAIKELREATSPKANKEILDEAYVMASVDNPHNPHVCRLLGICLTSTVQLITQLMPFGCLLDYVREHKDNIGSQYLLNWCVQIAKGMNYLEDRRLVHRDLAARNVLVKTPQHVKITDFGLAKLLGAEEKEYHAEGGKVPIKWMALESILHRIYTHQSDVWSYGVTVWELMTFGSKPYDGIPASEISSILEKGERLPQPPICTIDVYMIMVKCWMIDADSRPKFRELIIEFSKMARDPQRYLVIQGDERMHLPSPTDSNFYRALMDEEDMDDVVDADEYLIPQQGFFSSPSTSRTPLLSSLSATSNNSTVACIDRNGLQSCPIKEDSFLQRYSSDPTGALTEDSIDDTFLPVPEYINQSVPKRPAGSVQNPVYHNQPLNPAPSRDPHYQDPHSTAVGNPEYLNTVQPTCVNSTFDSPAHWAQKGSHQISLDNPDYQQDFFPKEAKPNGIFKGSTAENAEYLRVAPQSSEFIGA
T7 sequence (P04626 with tags, fused parts or gaps INS775YVMA): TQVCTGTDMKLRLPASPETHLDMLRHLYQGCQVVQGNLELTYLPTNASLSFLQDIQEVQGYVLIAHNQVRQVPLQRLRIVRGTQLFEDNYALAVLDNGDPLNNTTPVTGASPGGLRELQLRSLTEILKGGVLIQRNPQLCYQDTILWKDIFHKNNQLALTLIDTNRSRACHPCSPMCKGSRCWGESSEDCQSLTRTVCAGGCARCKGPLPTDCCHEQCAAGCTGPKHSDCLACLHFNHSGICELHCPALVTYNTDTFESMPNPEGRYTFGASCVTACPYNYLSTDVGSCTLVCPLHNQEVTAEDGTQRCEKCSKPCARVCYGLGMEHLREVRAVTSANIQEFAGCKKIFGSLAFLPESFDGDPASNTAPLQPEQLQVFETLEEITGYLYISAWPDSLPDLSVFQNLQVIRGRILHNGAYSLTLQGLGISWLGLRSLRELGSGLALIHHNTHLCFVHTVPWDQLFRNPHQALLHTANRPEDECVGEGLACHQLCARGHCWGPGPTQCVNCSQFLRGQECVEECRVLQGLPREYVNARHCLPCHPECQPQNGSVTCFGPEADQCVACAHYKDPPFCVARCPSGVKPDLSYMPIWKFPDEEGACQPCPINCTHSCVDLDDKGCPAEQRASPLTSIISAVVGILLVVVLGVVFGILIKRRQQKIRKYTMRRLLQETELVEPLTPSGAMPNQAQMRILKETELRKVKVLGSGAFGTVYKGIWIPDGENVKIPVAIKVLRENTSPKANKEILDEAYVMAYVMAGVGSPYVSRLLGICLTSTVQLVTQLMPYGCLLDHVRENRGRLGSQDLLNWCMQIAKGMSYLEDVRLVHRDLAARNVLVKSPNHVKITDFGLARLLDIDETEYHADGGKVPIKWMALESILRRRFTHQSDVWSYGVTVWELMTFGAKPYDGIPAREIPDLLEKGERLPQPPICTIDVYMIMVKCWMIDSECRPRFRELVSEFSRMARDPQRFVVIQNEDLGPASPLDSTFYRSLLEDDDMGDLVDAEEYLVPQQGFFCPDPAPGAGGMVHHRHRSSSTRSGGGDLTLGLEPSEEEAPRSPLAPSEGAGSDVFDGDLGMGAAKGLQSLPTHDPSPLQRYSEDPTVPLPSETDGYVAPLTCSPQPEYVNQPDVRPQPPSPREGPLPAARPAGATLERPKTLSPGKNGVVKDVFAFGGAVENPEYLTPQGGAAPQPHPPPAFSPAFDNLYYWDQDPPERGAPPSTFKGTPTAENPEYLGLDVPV
T4 sequence (P00533 with tags, fused parts or gaps DUP768-770): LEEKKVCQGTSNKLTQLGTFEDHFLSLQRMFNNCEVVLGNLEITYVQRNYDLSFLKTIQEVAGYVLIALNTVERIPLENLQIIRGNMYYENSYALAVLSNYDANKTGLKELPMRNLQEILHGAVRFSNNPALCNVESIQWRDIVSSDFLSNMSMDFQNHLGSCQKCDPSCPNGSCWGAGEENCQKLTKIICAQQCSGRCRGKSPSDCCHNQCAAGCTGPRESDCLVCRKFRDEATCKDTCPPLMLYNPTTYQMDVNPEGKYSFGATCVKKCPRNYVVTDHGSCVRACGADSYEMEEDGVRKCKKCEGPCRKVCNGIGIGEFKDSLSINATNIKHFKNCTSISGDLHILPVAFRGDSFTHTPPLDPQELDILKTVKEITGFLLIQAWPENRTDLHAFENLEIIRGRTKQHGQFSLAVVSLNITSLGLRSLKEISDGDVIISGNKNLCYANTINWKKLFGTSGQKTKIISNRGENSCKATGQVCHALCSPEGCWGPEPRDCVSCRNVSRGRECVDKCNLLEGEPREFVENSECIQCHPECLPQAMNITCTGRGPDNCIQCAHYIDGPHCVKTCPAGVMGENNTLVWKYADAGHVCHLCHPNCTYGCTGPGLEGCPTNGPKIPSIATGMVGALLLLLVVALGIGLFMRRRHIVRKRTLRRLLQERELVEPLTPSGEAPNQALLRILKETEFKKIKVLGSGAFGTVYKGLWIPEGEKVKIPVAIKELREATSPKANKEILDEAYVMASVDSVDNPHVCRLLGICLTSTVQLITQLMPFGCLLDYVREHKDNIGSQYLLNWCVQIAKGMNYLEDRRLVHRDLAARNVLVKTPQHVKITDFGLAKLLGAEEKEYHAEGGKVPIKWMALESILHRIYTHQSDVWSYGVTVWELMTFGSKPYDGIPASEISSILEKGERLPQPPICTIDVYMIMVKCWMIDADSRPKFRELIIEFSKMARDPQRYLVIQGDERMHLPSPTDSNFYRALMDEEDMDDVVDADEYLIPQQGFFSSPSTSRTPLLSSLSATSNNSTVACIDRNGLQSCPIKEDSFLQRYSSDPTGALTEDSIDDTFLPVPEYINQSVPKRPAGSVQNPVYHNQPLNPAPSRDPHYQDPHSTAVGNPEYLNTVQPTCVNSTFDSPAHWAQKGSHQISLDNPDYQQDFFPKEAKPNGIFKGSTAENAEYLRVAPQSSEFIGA

Row | Compound | IC50 (EGFR WT [1]) | IC50 (EGFR V3 [2]) | IC50 (EGFR NPH [3]) | IC50 (EGFR SVD [4]) | IC50 (HER2 WT [5]; [15]) | IC50 (HER2 WT [5]; [16]) | IC50 (HER2 S310F [6]) | IC50 (HER2 YVMA [7]) | IC50 (EGFR WT [8]) | IC50 (EGFR V3 [9]) | IC50 (EGFR NPH [10]) | IC50 (EGFR SVD [11]) | IC50 (HER2 WT [12]) | IC50 (HER2 S310F [13]) | IC50 (HER2 YVMA [14])
1 | C=CC(=O)Nc1cc2c(Nc3ccc(OCc4ccccn4)cc3F)ncnc2cc1OCCN1CCOCC1 [compound 56] | 300 to 500 nM | 20 to 30 nM | 300 to 500 nM | 300 to 500 nM | 20 to 30 nM | ≤ 50 nM | 50 to 100 nM | 200 to 300 nM | 300 to 500 nM | 20 to 30 nM | 300 to 500 nM | 300 to 500 nM | 20 to 30 nM | 50 to 100 nM | 200 to 300 nM
2 | C=CC(=O)Nc1cc2c(Nc3cc(Cl)c(OCc4ccccn4)cc3F)ncnc2cc1OCCN1CCOCC1 [compound 57] | 500 to 1000 nM | 10 to 20 nM | 50 to 100 nM | 30 to 50 nM | 5 to 10 nM | ≤ 10 nM | 10 to 20 nM | 50 to 100 nM | 500 to 1000 nM | 10 to 20 nM | 50 to 100 nM | 30 to 50 nM | 5 to 10 nM | 10 to 20 nM | 50 to 100 nM
3 | C=CC(=O)Nc1cc2c(Nc3cc(Cl)c(OCc4ccccn4)cc3F)ncnc2cc1OC1CCN(C)C1 (centres unmarked) [compound 60] | 200 to 300 nM | 10 to 20 nM | 200 to 300 nM | 200 to 300 nM | 5 to 10 nM | ≤ 10 nM | 20 to 30 nM | 300 to 500 nM | 200 to 300 nM | 10 to 20 nM | 200 to 300 nM | 200 to 300 nM | 5 to 10 nM | 20 to 30 nM | 300 to 500 nM

The next lines start with the values.

Row | IC50 (EGFR WT [1]) | IC50 (EGFR V3 [2]) | IC50 (EGFR NPH [3]) | IC50 (EGFR SVD [4]) | IC50 (HER2 WT [5]; [15]) | IC50 (HER2 WT [5]; [16]) | IC50 (HER2 S310F [6]) | IC50 (HER2 YVMA [7]) | IC50 (EGFR WT [8]) | IC50 (EGFR V3 [9]) | IC50 (EGFR NPH [10]) | IC50 (EGFR SVD [11]) | IC50 (HER2 WT [12]) | IC50 (HER2 S310F [13]) | IC50 (HER2 YVMA [14]) | Compound
4 | 300 to 500 nM | 10 to 20 nM | 30 to 50 nM | 20 to 30 nM | < 5 nM | ≤ 5 nM | 5 to 10 nM | 30 to 50 nM | 300 to 500 nM | 10 to 20 nM | 30 to 50 nM | 20 to 30 nM | < 5 nM | 5 to 10 nM | 30 to 50 nM | C=CC(=O)Nc1cc2c(Nc3ccc(OCc4ccccn4)c(Cl)c3)ncnc2cc1OC1CC(N(C)C)C1 (centres unmarked) [compound 62]
5 | > 1000 nM | 50 to 100 nM | 300 to 500 nM | 300 to 500 nM | 30 to 50 nM | ≤ 50 nM | 50 to 100 nM | 300 to 500 nM | > 1000 nM | 50 to 100 nM | 300 to 500 nM | 300 to 500 nM | 30 to 50 nM | 50 to 100 nM | 300 to 500 nM | C=CC(=O)Nc1cc2c(Nc3ccc(Oc4ccccc4)cc3)ncnc2cc1OCCN1CCOCC1 [compound 63]
6 | 500 to 1000 nM | 20 to 30 nM | 100 to 200 nM | 50 to 100 nM | 50 to 100 nM |  | 10 to 20 nM | 50 to 100 nM | 500 to 1000 nM | 20 to 30 nM | 100 to 200 nM | 50 to 100 nM | 50 to 100 nM | 10 to 20 nM | 50 to 100 nM | C=CC(=O)Nc1cc2c(Nc3ccc(OCc4ccccn4)c(Cl)c3)ncnc2cc1C#CC(C)(C)N(C)C [compound 66]
7 | 500 to 1000 nM | 100 to 200 nM | 500 to 1000 nM | 500 to 1000 nM | 10 to 20 nM | ≤ 20 nM | 30 to 50 nM | 300 to 500 nM | 500 to 1000 nM | 100 to 200 nM | 500 to 1000 nM | 500 to 1000 nM | 10 to 20 nM | 30 to 50 nM | 300 to 500 nM | C=CC(=O)Nc1cc2c(Nc3ccc(Oc4ccc(C)nc4)c(C)c3)ncnc2cc1OC1CCN(C)C1 (centres unmarked) [compound 68]
8 | > 1000 nM | 30 to 50 nM | 300 to 500 nM | 200 to 300 nM | 10 to 20 nM | ≤ 20 nM | 50 to 100 nM | 500 to 1000 nM | > 1000 nM | 30 to 50 nM | 300 to 500 nM | 200 to 300 nM | 10 to 20 nM | 50 to 100 nM | 500 to 1000 nM | C=CC(=O)Nc1cc2c(Nc3ccc(OCc4ccccn4)c(Cl)c3)ncnc2cc1N1CCC(N(C)C)CC1 [compound 78]
